According to patent US20240100081A1, “COMPOSITIONS AND METHODS FOR TREATING AGE-RELATED MACULAR DEGENERATION AND GEOGRAPHIC ATROPHY” (University of Virginia Patent Foundation, priority 2017, published 2024):

Tests used:
RPE [1] = conditions: earlier demonstration (refs 2, 21); cited from earlier work
IFNB mRNA = IFNB mRNA real-time PCR, human RPE cells; type: cell-based; conditions: lentiviral shRNA
Experimental: Real-time PCR Total RNA purified from cell using Trizol reagent (Invitrogen) following manufacturer's recommendation was DNase treated and reverse transcribed using […]® Reverse Transcription kit (QIAGEN). The RT products (cDNA) were amplified by real-time quantitative PCR (Applied Biosystems 7900 HT Fast Real-Time PCR system) with Power SYBR green Master Mix. Relative gene expression was determined by 2^−ΔΔCt t method using 18S rRNA or GAPDH as internal control. Primers were used as described in the provisional patent application from which this application depends and as in Kerur et al., 2018, Nature, the publication resulting from the data in the provisional application. The primers were for human IFNB1, CASP4, DICER, cGAS, 18s rRNA, mitochondrial DNA, GAPDH, and GSDMD, MIP1α, IL6, IL8, and mouse Ifnb1, Gapdh, 18s rRNA, and mitochondrial DNA.
Lentivirus articles were either produced by the University of Kentucky Viral Production Core facilities or in house. Lentivirus vector plasmids expressing scrambled sequences or shRNA sequences targeting human caspase-4 and cGAS were purchased (MISSION®shRNA, Sigma-Aldrich) to produce lentiviral particles. Human RPE cells at passage 3 were incubated with lentiviral particles at multiplicity of infection (MOI) of 5 overnight in regular growth media containing polybrene (4 μg/ml). […] Knockdown of the target proteins was determined by immunoblotting.

caspase-4 = test: Caspase-4 activation (p30) immunoblot in human RPE cells; type: cell-based; conditions: lentiviral shRNA
Experimental: (§1) Cell and tissue lysates prepared in RIPA buffer where homogenized by sonication. Protein concentration was determined using Pierce BCA Protein Assay Kit (Thermo Fisher Scientific Inc.). Equal quantity of protein (10-50 μg) prepared in Laemmli buffer were resolved by SDS-PAGE on NOVEX® Tris-Glycine Gels (Invitrogen), and transferred onto Immobilon-FL PVDF membranes (Millipore). The transferred membranes were blocked in ODYSSEY® Blocking Buffer (PBS) or 5% nonfat dry skim milk for 1 hour at RT and then incubated with primary antibody at 4° C. overnight. The immunoreactive bands were visualized with help of species specific secondary antibodies conjugated with IRDYE® or HRP. The blot image were either captured on ODYSSEY® imaging systems or on an autoradiography film. […]

caspase-1 = test: Caspase-1 activation (p20) immunoblot in human RPE cells; type: cell-based; conditions: lentiviral shRNA
Experimental: as §1
Lentivirus articles were either produced by the University of Kentucky Viral Production Core facilities or in house. […] Knockdown of the target proteins was determined by immunoblotting.

STAT2 = STAT2 phosphorylation immunoblot, human RPE cells; type: cell-based; conditions: lentiviral shRNA
Experimental: as §1

IL-18 = IL-18 secretion ELISA, mouse RPE cells; type: cell-based; conditions: Casp11−/− and Mb21d1−/− mouse RPE cells; LPS-primed, MSU 250 μg/ml
Experimental: Secreted human and mouse interferon-β and IL-18 in the media were detected using the ELISA kits (mouse IFN-β, R&D Systems Cat #42400-1; mouse IL-18, R&D Systems Cat #7625; human IFN-β, R&D Systems Cat #41410; human IL-18, R&D systems Cat #DY318-05) according to the manufacturer's instructions. Primary mouse cells cultured as above. WT, Gsdmd^−/−, Casp11^−/−, and Mb21d1^−/− mouse RPE cells were seeded at a density of 250,000 cells/well in a 12-well plate. When confluency reached 60-70%, cells were transfected with 20 pmol of in vitro transcribed Alu RNA or mock using Lipofectamine 2000 reagent (Life Technologies, Carlsbad, CA) following the manufacturer protocol. Media was collected to detect secreted cytokine content at 8 to 24 h post-transfection. For examining the induction of IL-18 secretion by monosodium urate (MSU) crystals (Invivogen Cat #tlrl-msu), mouse RPE cells were primed with LPS (500 ng/ml) for 6 h and exposed to MSU (250 μg/ml) for 16 h, and media were collected to detect secreted cytokine.

cGAS = molecular target: T1, cGAS (Mus musculus, UniProt Q8C6L5); test: cGAS-mtDNA interaction immunoprecipitation assay (HA-cGAS MEFs); type: cell-based; conditions: HA-cGAS reconstituted Mb21d1−/− MEFs
T1 construct: expressed in transfected cells
T1 sequence (Q8C6L5 whole entry): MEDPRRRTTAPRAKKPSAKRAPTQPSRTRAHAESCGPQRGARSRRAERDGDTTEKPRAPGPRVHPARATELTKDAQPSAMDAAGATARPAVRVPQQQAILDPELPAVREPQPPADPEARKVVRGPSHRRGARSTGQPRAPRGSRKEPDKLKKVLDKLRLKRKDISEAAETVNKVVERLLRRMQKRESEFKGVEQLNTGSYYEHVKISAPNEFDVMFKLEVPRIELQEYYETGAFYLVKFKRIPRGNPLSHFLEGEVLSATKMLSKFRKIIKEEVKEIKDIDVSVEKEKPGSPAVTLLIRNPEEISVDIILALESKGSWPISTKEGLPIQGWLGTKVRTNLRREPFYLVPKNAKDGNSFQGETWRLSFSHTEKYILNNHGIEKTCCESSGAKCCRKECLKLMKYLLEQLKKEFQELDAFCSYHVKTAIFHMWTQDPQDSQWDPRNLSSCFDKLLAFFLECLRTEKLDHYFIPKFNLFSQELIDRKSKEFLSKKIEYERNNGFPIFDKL
Description: Immortalized cGAS^−/− mouse embryonic fibroblasts (MEF) reconstituted with HA-tagged mouse cGAS (HA-cGAS) were described earlier^28. Interaction between mtDNA and cGAS was monitored using Express Chromatin Immunoprecipitation Kit (Active Motif, CHIP-IT® Express, cat #53008). Briefly mock, Alu RNA, poly I: C or plasmid DNA (pUC19) transfected HA-cGAS reconstituted cGAS^−/− MEFs were fixed with 1% formaldehyde per manufacturer's instructions. The cells were then lysed by sonication in the shearing buffer, centrifuged for 10 min at 18,000 g in a 4° C. microfuge. The supernatant containing the cell lysate was collected and cGAS was immunoprecipitated from each sample using anti-HA tag antibody (Abcam, cat #ab9110). DNA in the IP was eluted, reverse crosslinked and purified using Chromatin IP DNA Purification Kit (Active Motif, cat #58002). Purified DNA was analyzed by qPCR using mouse mtDNA specific primer pairs.

RPE [2] = test: RPE flat mount annexin V/PI staining in mice; conditions: Alu RNA-treated Gsdmd−/− mice
RPE [3] = test: Alu-induced RPE degeneration in mice (subretinal injection; fundus photography, ZO-1 flat mounts); type: in vivo, mouse; conditions: Gsdmd−/− mice
Experimental: Alu-mediated RPE degeneration was induced by exposing mice to Alu RNA as previously described^14-18. Seven days later, RPE health was assessed by fundus photography and immunofluorescence staining of zonula occludens-1 (ZO-1) on RPE flat mounts (whole mount of posterior eye cup containing RPE and choroid layers). Mouse RPE and choroid flat mounts were fixed with 4% paraformaldehyde or 100% methanol, stained with rabbit polyclonal antibodies against mouse ZO-1 (1:100, Invitrogen), and visualized with Alexa-594 (Invitrogen). All images were obtained by microscopy (model SP-5, Leica; or Axio Observer Z1, Zeiss). Imaging was performed by an operator masked to the group assignments.
Binary Assignment: Healthy RPE cells form a polygonal tessellation with a principally hexagonal “honeycomb” formation. RPE degeneration was assessed as a disruption of this uniformity of this polygonal sheet. Thus, RPE health was assessed as the presence or absence of morphological disruption in RPE flat mounts by two independent raters who were masked to the group assignments. […] Inter-rater reliability was measured by agreement on assignments, Pearson coefficient of determination, and Fleiss κ. […]
Cellular Morphometry: Quantifying cellular morphometry for hexagonally packed cells was performed in semi-automated fashion by three masked graders by adapting our previous analysis of corneal endothelial cell density^19. […]

Compound: NCC(=O)O [glycine]
- effect on Alu RNA-induced RPE degeneration (RPE [1]): neither necrostatin-1, an inhibitor of primary necrosis^39, nor glycine, an inhibitor of pyroptosis^40, blocks

Compound: cGAS shRNA: shRNA against cGAS, Sigma-Aldrich TRCN0000150010, SEQ ID NO: 15 (guide CCGGCCTGCTGTAACACTTCTTATTCTCGAGAATAAGAAGTGTTACAGCAGGTTTTTTG; listed as Homo sapiens)
- effect on DICER1 AS-induced IFNB mRNA (IFNB mRNA): markedly depressed
- effect on Alu RNA-induced activation of caspase-4 (p30 subunit) (caspase-4): suppressed
- effect on Alu RNA-induced activation of caspase-1 (p20 subunit) (caspase-1): suppressed
- effect on Alu RNA-induced phosphorylation of STAT2 (STAT2): suppressed

Compound: O=c1[nH]c(=O)c2[nH]c([O-])nc2[nH]1.[Na+] [MSU, monosodium urate]
- IL-18 secretion (IL-18): unaffected

Compound: CN1C(=O)C(Cc2c[nH]c3ccccc23)NC1=S (stereo not shown) [necrostatin-1]
- effect on Alu RNA-induced RPE degeneration (RPE [1]): neither necrostatin-1, an inhibitor of primary necrosis^39, nor glycine, an inhibitor of pyroptosis^40, blocks

Compound: poly(I:C)
- enrichment of mtDNA in cGAS immunoprecipitate (cGAS): not

Compound: recIL-18: recombinant mature IL-18 (MBL Cat #B002-5)
- annexin-V / PI staining of RPE flat mounts (RPE [2]): numerous annexin-V^+ PI^− cells
- resistance to Alu RNA-induced RPE degeneration (RPE [3]): overcome
